Data from US20170334899A1, “AMINO-SUBSTITUTED ISOTHIAZOLES” (Bayer Pharma Aktiengesellschaft, priority 2014, published 2017).

What was measured:
Format in all cases: cell-based
[1] = tested on: human cervical tumor cell line HeLa (ATCC CCL-2); experiment: SAC-Formation - Nocodazole-Induced Assay; details: Homo sapiens, HeLa, 24 h, HeLa cells, nocodazole 0.1 μg/ml together with test compound, decrease of mitotic cells (phospho-histone H3 Ser10)
Description: (§1) The spindle assembly checkpoint assures the proper segregation of chromosomes during mitosis. Upon entry into mitosis, chromosomes begin to condensate which is accompanied by the phosphorylation of histone H3 on serine 10. Dephosphorylation of histone H3 on serine 10 begins in anaphase and ends at early telophase. Accordingly, phosphorylation of histone H3 on serine 10 can be utilized as a marker of cells in mitosis. Nocodazole is a microtubule destabilizing substance. Paclitaxel is a microtubule stabilizing compound. Thus, nocodazole as well as paclitaxel interfere with microtubule dynamics and mobilize the spindle assembly checkpoint. […] The mitotic breakthrough can be detected by the decrease of cells with phosphorylation of histone H3 on serine 10. This decline is used as a marker to determine the capability of compounds of the present invention to induce a mitotic breakthrough. The typical morphological alteration of nuclei with a prematurely completed mitosis after SAC-inhibition can be monitored via image analysis routines supporting those findings.
(§2) The nocodazole and paclitaxel variations were used to focus on compounds that are capable of inhibiting a SAC induced by both microtubule destabilization as well as microtubule stabilization. When SAC inducing agents and compounds are given simultaneously inhibitors that effectively block the SAC during formation or abrogation are identified. When cells are incubated with a SAC inducing agent and the SAC interfering compound is given after a defined time, inhibitors are identified that effectively block SAC abrogation.
(§3) Cultivated cells of the human cervical tumor cell line HeLa (ATCC CCL-2) were plated at a density of 1000 cells/well in a 1536-well microtiter plate in 2 μl PAA Ham's F12 Medium supplemented with 1% (v/v) glutamine, 1% (v/v) penicillin, 1% (v/v) streptomycin and 10% (v/v) fetal calf serum. After incubation overnight at 37° C., 10 μl/well nocodazole at a final concentration of 0.1 μg/ml were added to cells. Test compounds solubilized in dimethyl sulfoxide (DMSO) were added at various concentrations (0 μM, as well as in the range of 0.005 μM-20 μM; the final concentration of the solvent DMSO was 0.5% (v/v)). Cells were incubated for 24 h at 37° C. in the presence of test compounds in combination with nocodazole. Thereafter, cells were fixed in 4% (v/v) paraformaldehyde in phosphate buffered saline (PBS) at 4° C. overnight then permeabilized in 0.1% (v/v) Triton X™ 100 in PBS at room temperature for 20 min and blocked in 0.5% (v/v) bovine serum albumin (BSA) in PBS at room temperature for 15 min. After washing with PBS, 5 μl/well antibody solution (anti-phospho-histone H3 clone 3H10, FITC; Millipore, Cat#16-222; 1:1000 dilution) was added to cells, which were incubated for 2 h at room temperature. Afterwards, cells were washed with PBS and 5 μl/well solution of HOECHST 33342 dye (5 μg/ml) was added to cells and cells were incubated 15 min at room temperature in the dark. Cells were washed twice with PBS then covered with PBS and stored at 4° C. until analysis. Images were acquired with a PERKIN ELMER OPERA™ High-Content Analysis reader. Images were analyzed with image analysis software MetaXpress™ from Molecular devices utilizing the Mitotic Index application module. In this assay both labels HOECHST 33342 and phosphorylated Histone H3 on serine 10 were measured. HOECHST 33342 labels the DNA and is used to count the cell number. The staining of phosphorylated Histone H3 on serine 10 determines the number of mitotic cells. […] Otherwise cells were arrested at G2/M phase of the cell cycle progression. The raw assay data were further analyzed by four-parametric hill equation using Genedata's Assay Analyzer and Condoseo software.

[2] = tested on: human cervical tumor cell line HeLa (ATCC CCL-2); experiment: SAC-Formation - Paclitaxel-Induced Assay; details: Homo sapiens, HeLa, 24 h, HeLa cells, paclitaxel 0.05 μM, test range 0.005 μM-20 μM, read-out: IC50 [mol/l] SAC-Formation - Paclitaxel-Induced Assay
Description: as §1, §2
Cultivated cells of the human cervical tumor cell line HeLa (ATCC CCL-2) were plated at a density of 1000 cells/well in a 1536-well microtiter plate in 2 μl PAA
as §3, with “Ham's” for “Cultivated cells of the human cervical tumor cell line HeLa (ATCC CCL-2) were plated at a density of 1000 cells/well in a 1536-well microtiter plate in 2 μl PAA Ham's”, “paclitaxel” for “nocodazole”, “0.05 μM” for “0.1 μg/ml”, “μM -20” for “μM-20”, “paclitaxel.” for “nocodazole.”

[3] = tested on: HeLa; experiment: Proliferation assay (crystal violet), HeLa; details: Homo sapiens, HeLa, 96 h, HeLa cells; 4 days incubation; crystal violet staining; read-out: IC50 inhibition of proliferation, HeLa
Protocol: Cultivated tumor cells (cells were ordered from ATCC, except HeLa-MaTu and HeLa-MaTu-ADR, which were ordered from EPO-GmbH, Berlin) were plated at a density of 1000 to 5000 cells/well, depending on the growth rate of the respective cell line, in a 96-well multititer plate in 200 μL of their respective growth medium supplemented 10% fetal calf serum. After 24 hours, the cells of one plate (zero-point plate) were stained with crystal violet (see below), while the medium of the other plates was replaced by fresh culture medium (200 μl), to which the test substances were added in various concentrations (0 μM, as well as in the range of 0.001-10 μM; the final concentration of the solvent dimethyl sulfoxide was 0.5%). The cells were incubated for 4 days in the presence of test substances. Cell proliferation was determined by staining the cells with crystal violet: the cells were fixed by adding 20 μl/measuring point of an 11% glutaric aldehyde solution for 15 minutes at room temperature. After three washing cycles of the fixed cells with water, the plates were dried at room temperature. The cells were stained by adding 100 μl/measuring point of a 0.1% crystal violet solution (pH 3.0). After three washing cycles of the stained cells with water, the plates were dried at room temperature. The dye was dissolved by adding 100 μl/measuring point of a 10% acetic acid solution. Absorbtion was determined by photometry at a wavelength of 595 nm. The change of cell number, in percent, was calculated by normalization of the measured values to the aborbtion values of the zero-point plate (=0%) and the absorbtion of the untreated (0 μm) cells (=100%). The IC50 values were determined by means of a 4 parameter fit.

IC50 [1] [µM]	IC50 [2] [µM]	IC50 [3] [µM]	SMILES
3	7.3	10	Cc1nsc(Nc2cnc3ccccc3n2)c1C(=O)Nc1cccc(C(=O)N(C)CCN(C)C)c1 [Example 58, N-(3-{[2-(Dimethylamino)ethyl](methyl)carbamoyl}phenyl)-3-methyl-5-(quinoxalin-2-ylamino)-1,2-thiazole-4-carboxamide]
3.4	20	10	Cc1nsc(Nc2cnc3ccccc3n2)c1C(=O)Nc1cccc(C(=O)N(C)CCO)c1 [Example 59, N-{3-[(2-hydroxyethyl)(methyl)carbamoyl]phenyl}-3-methyl-5-(quinoxalin-2-ylamino)-1,2-thiazole-4-carboxamide]
0.31	0.24	10	Cc1nsc(Nc2cnc3ccccc3n2)c1C(=O)Nc1cccc(C(=O)NCCCN2CCCC2=O)c1 [Example 60, 3-Methyl-N-(3-{[3-(2-oxopyrrolidin-1-yl)propyl]carbamoyl}phenyl)-5-(quinoxalin-2-ylamino)-1,2-thiazole-4-carboxamide]
0.031	0.28	10	Cc1nsc(Nc2cnc3ccccc3n2)c1C(=O)Nc1cccc(C(=O)N2CCC(N3CCCCC3)CC2)c1 [Example 61, N-[3-(1,4′-Bipiperidin-1′-ylcarbonyl)phenyl]-3-methyl-5-(quinoxalin-2-ylamino)-1,2-thiazole-4-carboxamide]
0.44	1.5	10	C#CCN(C)C(=O)c1cccc(NC(=O)c2c(C)nsc2Nc2cnc3ccccc3n2)c1 [Example 62, 3-Methyl-N-{3-[methyl(prop-2-yn-1-yl)carbamoyl]phenyl}-5-(quinoxalin-2-ylamino)-1,2-thiazole-4-carboxamide]
0.19	0.44	3.6	Cc1nsc(Nc2cnc3ccccc3n2)c1C(=O)Nc1cccc(C(=O)Nc2ccc3c(c2)OCO3)c1 [Example 63, N-[3-(1,3-Benzodioxol-5-ylcarbamoyl)phenyl]-3-methyl-5-(quinoxalin-2-ylamino)-1,2-thiazole-4-carboxamide]
0.32	1.3	2.7	Cc1nsc(Nc2cnc3ccccc3n2)c1C(=O)Nc1cccc(C(=O)NCC(F)(F)F)c1 [Example 64, 3-Methyl-5-(quinoxalin-2-ylamino)-N-{3-[(2,2,2-trifluoro-ethyl)carbamoyl]phenyl}-1,2-thiazole-4-carboxamide]
0.41	7.4	8.2	Cc1nsc(Nc2cnc3ccccc3n2)c1C(=O)Nc1cccc(C(=O)Nc2ccc(N3CCOCC3)cc2)c1 [Example 65, 3-Methyl-N-(3-{[4-(morpholin-4-yl)phenyl]carbamoyl}phenyl)-5-(quinoxalin-2-ylamino)-1,2-thiazole-4-carboxamide]
0.72	20	10	CC(=O)NCCNC(=O)c1cccc(NC(=O)c2c(C)nsc2Nc2cnc3ccccc3n2)c1 [Example 66, N-(3-{[2-(Acetylamino)ethyl]carbamoyl}phenyl)-3-methyl-5-(quinoxalin-2-ylamino)-1,2-thiazole-4-carboxamide]
0.016	0.67	10	CCN(C)C(=O)c1cccc(NC(=O)c2c(C)nsc2Nc2cnc3ccccc3n2)c1 [Example 67, N-{3-[Ethyl(methyl)carbamoyl]phenyl}-3-methyl-5-(quinoxalin-2-ylamino)-1,2-thiazole-4-carboxamide]
0.11	1.1	10	Cc1nsc(Nc2cnc3ccccc3n2)c1C(=O)Nc1cccc(C(=O)N(C)CCCN(C)C)c1 [Example 68, N-(3-{[3-(Dimethylamino)propyl](methyl)carbamoyl}-phenyl)-3-methyl-5-(quinoxalin-2-ylamino)-1,2-thiazole-4-carboxamide]
0.87	2.6	4	COc1cc(CNC(=O)c2cccc(NC(=O)c3c(C)nsc3Nc3cnc4ccccc4n3)c2)cc(OC)c1OC [Example 69, 3-Methyl-5-(quinoxalin-2-ylamino)-N-{3-[(3,4,5-trimethoxy-benzyl)carbamoyl]phenyl}-1,2-thiazole-4-carboxamide]
2.2	10	10	CC(=O)N1CCN(C(=O)c2cccc(NC(=O)c3c(C)nsc3Nc3cnc4ccccc4n3)c2)CC1 [Example 70, N-{3-[(4-Acetylpiperazin-1-yl)carbonyl]phenyl}-3-methyl-5-(quinoxalin-2-ylamino)-1,2-thiazole-4-carboxamide]
